Results taken from patent US20240325544A1, “CATIONIC LIPID FOR COVALENT MODIFICATION OF PEPTIDES” (PharmalN Corporation, priority 2023, published 2024).
Marks after values point to notes of the source that are not given here. Bridge positions count the residues as written; N and C are the ends. Square brackets hold non-standard residues; d marks the D form. Peptide text beside a SMILES is read from it. * marks the point of attachment. Palmitoyl = CCCCCCCCCCCCCCCC(=O)*; Dab = NCC[C@H](N)C(=O)O; Dap = NC[C@H](N)C(=O)O; AEEA = NCCOCCOCC(=O)O

Assays:
[1] = Clinically observable adverse effects of cationic alkyl moieties after subcutaneous bolus in rats (Table 1); assay type: in vivo, rat; details: male, Sprague-Dawley, rat, in vivo, sc, tested at 3.0, 5.0 or 10 μmol/kg, lethargy is considered maximum tolerated bolus dose, read-out: Lethargy* in n = 3
Protocol: (§1) Drug administration and observation: Each rat received a subcutaneous injection of a cationic alkyl modifier (SEQ ID NO: 1-22; listed in Table 1 below) in a buffer of sterile water adjusted to a pH between 4.5-5, with an initial bolus dose of 5.0 μmol/kg and an injection volume of 1.0 mL/kg. The bolus dose level was adjusted based on observations, and animals were monitored closely for lethargy, ataxia, swelling, or discoloration during the first 4 hours post-injection and hourly thereafter. As used herein, “ataxia” means a clinical sign observed as poor muscle control that causes clumsy voluntary movements. It may cause difficulty with mobility, coordination, and eye movements. As used herein, “lethargy” means a clinical sign observed as inability or unwillingness to resume normal activity characterized by exploring and alertness. Lethargic rats are easily observed by displaying little to no activity and/or unwillingness to explore around, half closed eyes, and hunched posture. As used herein, “swelling” means a clinical sign observed as the enlargement or engorgement of body parts with blood or fluid and is associated with visible redness (discoloration). If no swelling occurred, dose level was increased to 10 μmol/kg; if swelling was present, bolus dose level was decreased to 3.0 μmol/kg. A wash-out period of 1 week was allowed between bolus doses, and animals were humanely euthanized through CO2 asphyxiation after final observation.

[2] = test system: Sprague Dawley rats; test: as above; assay type: in vivo, rat; details: tested at 3.0, 5.0 or 10 μmol/kg
Protocol: as §1

[3] = test system: E0771 breast cancer cells; test: Orthotopic mouse model of breast cancer using E0771 cells (FIG. 6); assay type: in vivo, mice; details: 0.3 mg/kg (0.1 μmol/kg) SC once daily, 5 days on, 2 days off, 3 cycles
Protocol: Error bars represent standard error of the mean. FIG. 6A) Tumor growth kinetics of 6-week-old female C57BL/6J mice (n=10 per group) that were inoculated with E0771 breast cancer cells (250,000 cells/mouse) in the mammary gland. Starting from Day 4 post-inoculation, cationic alkyl modified CNP derivatives (SEQ ID NO: 29, 30, and 31) were administered subcutaneously at a bolus dose of 0.3 mg/kg (0.1 μmol/kg) once daily for 5 days (5 days on, 2 days off) for 3 cycles; dose days indicated by gridlines. The control group, which received only buffer, was dosed in the same manner to establish the baseline tumor growth kinetics. […] Therefore, it can be concluded that the attachment of CNP is important for the observed anti-tumor activity. Statistical analysis was based on Dunnett's test performed by using GraphPad (n=10, 10, 10, and 10; Control, SEQ ID NO: 29, SEQ ID NO: 30, and SEQ ID NO: 31) **** P<0.0001 vs Control group.
Therefore, it can be concluded that the attachment of CNP is essential for anti-tumor activity. […] Animal care and treatment: Female C57BL/6J mice (6 weeks-old) were purchased from Kyudo (Saga, Japan) and maintained under a 12-hour light/12-hour dark cycle with free access to water and standard mouse diet (MF diet, Oriental Yeast Co., Ltd. Tokyo, Japan or PicoLab Rodent Diet 20, LabDiet Corp., St. Louis, Missouri). Implantation and drug administration: Mice were implanted with E0771 breast cancer cells (250,000 cells/mouse; Cosmo Bio Tokyo, Japan) in their left mammary gland and were randomized into groups of n=10. Starting from Day 4 post-inoculation, cationic alkyl modified CNP derivatives (SEQ ID NOs: 29, 30, and 31) were administered subcutaneously at a bolus dose of 0.3 mg/kg (0.1 μmol/kg; with a dose volume of 10 mL/kg) in sterile water for injection (Otsuka Pharmaceutical, Tokushima, Japan) once daily for 5 days (5 days on, 2 days off) for 3 cycles. The control group, which received only buffer, was dosed in the same manner to establish the baseline tumor growth kinetics. Tumor sizes were measured using calipers. Statistical analysis was based on Dunnett's test performed by using GraphPad (n=10, 10, 10, and 10; Control, SEQ ID NO: 29, SEQ ID NO: 30, and SEQ ID NO: 31) **** P<0.0001 vs Control group.

[4] = test system: cGMP; test: Plasma cGMP after SC bolus of natriuretic peptides in CD-1 mice (pharmacodynamics, Table 3); assay type: in vivo; details: SC bolus 1.0 mg/kg (≤0.45 μmol/kg), baseline 10 +/−8 pmol/ml, n = 3-5
In short: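 Peptides given SC in sterile water; retro-orbital blood at 2 and 6 h post-dose (two bleeds per mouse), K2EDTA plasma. Plasma cGMP by commercial immunoassay kit; ANP, BNP or CNP plasma levels by peptide-specific ELISA.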

[5] = Plasma concentration of respective natriuretic peptide by ELISA after SC bolus in CD-1 mice (pharmacokinetics, Table 3); details: male, CD-1, mouse, in vivo, sc, 1 mg/kg
Protocol: The test articles were formulated or dissolved in sterile water for injection on the same day of administration. […] Blood samples were collected via retro-orbital bleed at 2- and 6-hours post-injection, with two bleedings per animal at two different timepoints. The samples were collected in K2EDTA tubes, processed by centrifugation (2000×g; 15 m 4 eC within 30 minutes after collection), and the resulting plasma samples were stored at −80° C. Biochemical analysis: The plasma concentration of the respective natriuretic peptide was analyzed using commercially available ELISA kits from Phoenix Pharmaceuticals (Burlingame, CA): ANP ELISA (cat #EKE-005-06), BNP ELISA (cat #EKE-011-03), and CNP ELISA (cat #EKE-012-03). […] Plasma cGMP was analyzed using a commercially available kit from Abcam (ab133052, Waltham, MA).

[6] = test system: Sprague Dawley rats; test: Dose-range finding of cationic alkyl modified CNP, subcutaneous bolus in rats (Table 2)
Protocol: Animal care and treatment: Male Sprague Dawley rats aged 8 to 10 weeks (Charles River, Hollister, CA) were housed in groups of two (n=3/group) in disposable polypropylene cages with rodent cob bedding at the PharmaIN animal facility. Animals had ad libitum access to food (LabDiet Pico Rodent #5053; Animal Specialties, Woodburn, OR) and water. Temperature (68-74° F.) and humidity (30-60%) were maintained within a controlled range, and a 12-hour light/dark cycle was used. […] Animals were monitored closely during the first 4 hours following injection, then hourly throughout the rest of the day for any signs of swelling or discoloration (dilatory side effect), lethargy (side effect), ataxia (ataxia is used as a marker of toxicity). Rats were allowed a 1-week wash-out period between bolus doses. Following final observations, animals were humanely euthanized through CO2 asphyxiation.

level at 2 h [5] [ng/mL]	level at 6 h [5] [ng/mL]	Lethargy* in n = 3 ([6]; up to 10 mg/kg) [mg/kg]	Swelling and/or Discoloration in n = 3 ([6]; up to 10 mg/kg) [mg/kg]	Lethargy* in n = 3 ([6]; value in parentheses)	Swelling and/or Discoloration in n = 3 ([6]; value in parentheses)	SMILES	MTD [1] [µmol/kg]	Ataxia** in n = 3 ([2]; ataxia is bolus dose limiting toxicity) [µmol/kg]	Swelling and/or Discoloration in n = 3 ([2]; dose at which sign was seen) [µmol/kg]	Tumor volume compared to the Control group [3]	Plasma concentration of cGMP, 2 hr ([4]; 2 hr)	Plasma concentration of cGMP, 6 hr ([4]; 6 hr)	Ataxia** in n = 3 ([6]; up to 10 mg/kg) [mg/kg]	Ataxia** in n = 3 ([6]; value in parentheses)
						CCCCCCCCCCCCCCCC(=O)NCCOCCOCC(=O)NCCOCCOCC(=O)NCCOCCOCC(=O)N[C@@H](CN)C(=O)N[C@@H](CN)C(=O)O [SEQ ID NO: 14, CH3(CH2)14(C═O)-Aeea-Aeea-Aeea-Dap-Dap] ({Palmitoyl-AEEA-AEEA-AEEA}-[Dap]-[Dap]-OH; C-terminus assumed)	> 10	>10	>10	did not show a significant reduction in tumor volume				
12.6	1.9	≥10	>10	(3.3) μmol/kg	(3.3) μmol/kg	CCCCCCCCCCCCCCCC(=O)N[C@@H](Cc1ccc(O)cc1)C(=O)N[C@@H](CCC(=O)O)C(=O)NCCOCCOCC(=O)NCCOCCOCC(=O)N[C@@H](CCN)C(=O)N[C@@H](CCN)C(=O)NCC(=O)N[C@@H](CC(C)C)C(=O)N[C@@H](CO)C(=O)N[C@@H](CCCCN)C(=O)NCC(=O)N[C@H]1CSSC[C@@H](C(=O)O)NC(=O)CNC(=O)[C@H](CC(C)C)NC(=O)CNC(=O)[C@H](CO)NC(=O)[C@H](CCC(N)=O)NC(=O)[C@H](CO)NC(=O)CNC(=O)[C@H]([C@@H](C)CC)NC(=O)[C@H](CCCNC(=N)N)NC(=O)[C@H](CC(=O)O)NC(=O)[C@H](CC(C)C)NC(=O)[C@H](CCCCN)NC(=O)[C@H](CC(C)C)NC(=O)CNC(=O)[C@H](Cc2ccccc2)NC1=O [SEQ ID NO: 30] (Palmitoyl-YE[AEEA][AEEA][Dab][Dab]GLSKGCFGLKLDRIGSQSGLGC-OH; disulfide 12-28; C-terminus assumed)				significant decrease in tumor volume	217.30** pmol/mL	83.85* pmol/mL	>10	(3.3) μmol/kg
